Target: T1, Cys12 of the KRAS 4B G12C protein (Homo sapiens, UniProt P01116, G12C)
T1 construct: This protein contained 188 amino acids in total, including an N-terminal 6-Histidine tag; made in house; host or cells: E. coli BL21
Experiment: In vitro covalent adduct formation (CAF) assay, LC-MS intact mass
Format: binding
Conditions: 10 uM compound, 60 min
In short: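 Percent covalent modification from intact-mass LC-MS, by relative free versus adducted protein (adducts within 1 Da of expected mass). Reaction: 10 μM compound with 5 μM E. coli-expressed, GDP-exchanged KRAS 4B G12C in TBS pH 7.4, 4% DMSO, 1 h at 22° C.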

In order of rising “% CAF 10 uM @ 60 min” value:
1. C=CC(=O)N1[C@H](C)CN(c2nc(=O)n3c4c(c(-c5c(F)cccc5F)c(C(F)(F)F)cc24)SC[C@@H]3COC)C[C@@H]1C [Example 1371, (S)-7-((3S,5R)-4-acryloyl-3,5-dimethylpiperazin-1-yl)-10-(2,6-difluorophenyl)-3-(methoxymethyl)-9-(trifluoromethyl)-2,3-dihydro-5H-[1,4]thiazino[2,3,4-ij]quinazolin-5-one]  60.6%
2. C=CC(=O)N1[C@H](C)CN(c2nc(=O)n3c4c(c(-c5ccc(F)cc5)c(C(F)(F)F)cc24)SC[C@@H]3CN2CCN(C3CC3)CC2)C[C@@H]1C [Example 1333, (S)-7-((3S,5R)-4-acryloyl-3,5-dimethylpiperazin-1-yl)-3-((4-cyclopropylpiperazin-1-yl)methyl)-10-(4-fluorophenyl)-9-(trifluoromethyl)-2,3-dihydro-5H-[1,4]thiazino[2,3,4-ij]quinazolin-5-one]  61%
3. C=CC(=O)N1C[C@H](C)N(c2nc(=O)n3c4c(c(-c5ccc(F)cc5)c(C(F)(F)F)cc24)SC[C@@H]3CN2C[C@@H]3C[C@H]2CO3)C[C@H]1C [Example 1351, (S)-3-(((1S,4S)-2-oxa-5-azabicyclo[2.2.1]heptan-5-yl)methyl)-7-((2S,5R)-4-acryloyl-2,5-dimethylpiperazin-1-yl)-10-(4-fluorophenyl)-9-(trifluoromethyl)-2,3-dihydro-5H-[1,4]thiazino[2,3,4-ij]quinazolin-5-one]  64.8%
4. C=CC(=O)N1C[C@H](C)N(c2nc(=O)n3c4c(c(-c5cc(Cl)c(F)cc5F)c(C(F)(F)F)cc24)SCC2(COC2)C3)C[C@H]1C [Example 1357a]  74.3%
5. C=CC(=O)N1[C@H](C)CN(c2nc(=O)n3c4c(c(-c5ccc(F)c(Cl)c5)c(C(F)(F)F)cc24)SC[C@@H]3COCOC)C[C@@H]1C [Example 1359, (S)-7-((3S,5R)-4-acryloyl-3,5-dimethylpiperazin-1-yl)-10-(3-chloro-4-fluorophenyl)-3-((methoxymethoxy)methyl)-9-(trifluoromethyl)-2,3-dihydro-5H-[1,4]thiazino[2,3,4-ij]quinazolin-5-one]  74.6%
6. C=CC(=O)N1CCN(c2nc(=O)n3c4c(c(-c5ccc(F)cc5)c(C(F)(F)F)cc24)SC[C@@H]3CN2C[C@@H]3C[C@H]2CO3)CC1 [Example 1350, (S)-3-(((1S,4S)-2-oxa-5-azabicyclo[2.2.1]heptan-5-yl)methyl)-7-(4-acryloylpiperazin-1-yl)-10-(4-fluorophenyl)-9-(trifluoromethyl)-2,3-dihydro-5H-[1,4]thiazino[2,3,4-ij]quinazolin-5-one]  81.3%
7. C=CC(=O)N1[C@H](C)CN(c2nc(=O)n3c4c(c(-c5ccc(F)c(Cl)c5)c(C(F)(F)F)cc24)SC[C@H](N2CCOCC2)C3)C[C@@H]1C [Example 1336, (R)-8-((3S,5R)-4-acryloyl-3,5-dimethylpiperazin-1-yl)-11-(3-chloro-4-fluorophenyl)-3-morpholino-10-(trifluoromethyl)-3,4-dihydro-2H,6H-[1,4]thiazepino[2,3-4-ij]quinazolin-6-one]  85.5%
8. C=CC(=O)N1CCN(c2nc(=O)n3c4c(c(-c5ccc(F)c(Cl)c5)c(C(F)(F)F)cc24)SC[C@@H]3COC)CC1 [Example 1345, (S)-7-(4-acryloylpiperazin-1-yl)-10-(3-chloro-4-fluorophenyl)-3-(methoxymethyl)-9-(trifluoromethyl)-2,3-dihydro-5H-[1,4]thiazino[2,3,4-ij]quinazolin-5-one]  90%
9. C=CC(=O)N1C[C@H](C)N(c2nc(=O)n3c4c(c(-c5ccc(F)c(Cl)c5)c(C(F)(F)F)cc24)SC[C@@H]3COCOC)C[C@H]1C [Example 1363, (S)-7-((2S,5R)-4-acryloyl-2,5-dimethylpiperazin-1-yl)-10-(3-chloro-4-fluorophenyl)-3-((methoxymethoxy)methyl)-9-(trifluoromethyl)-2,3-dihydro-5H-[1,4]thiazino[2,3,4-ij]quinazolin-5-one]  92.1%
10. C=CC(=O)N1CCN(c2nc(=O)n3c4c(c(-c5ccc(F)c(Cl)c5)c(C(F)(F)F)cc24)SCC2(COC2)C3)CC1 [Example 1357, 8-(4-acryloylpiperazin-1-yl)-11-(3-chloro-4-fluorophenyl)-10-(trifluoromethyl)-2H-spiro[[1,4]thiazepino[2,3,4-ij]quinazoline-3,3′-oxetan]-6(4H)-one]  92.4%
11. C=CC(=O)N1C[C@H](C)N(c2nc(=O)n3c4c(c(-c5ccc(F)cc5)c(C(F)(F)F)cc24)SC[C@@H]3COCOC)C[C@H]1C [Example 1328, (S)-7-((2S,5R)-4-acryloyl-2,5-dimethylpiperazin-1-yl)-10-(4-fluorophenyl)-3-((methoxymethoxy)methyl)-9-(trifluoromethyl)-2,3-dihydro-5H-[1,4]thiazino[2,3,4-ij]quinazolin-5-one]  93.8%
12. C=CC(=O)N1[C@H](C)CN(c2nc(=O)n3c4c(c(-c5ccc(F)c(Cl)c5)c(C(F)(F)F)cc24)SC[C@@H]3COC)C[C@@H]1C [Example 1316, (S)-7-((3S,5R)-4-acryloyl-3,5-dimethylpiperazin-1-yl)-10-(3-chloro-4-fluorophenyl)-3-(methoxymethyl)-9-(trifluoromethyl)-2,3-dihydro-5H-[1,4]thiazino[2,3,4-ij]quinazolin-5-one]  96%
13. C=CC(=O)N1[C@H](C)CN(c2nc(=O)n3c4c(c(-c5ccc(F)c(OC(F)F)c5)c(Cl)cc24)SC[C@@H]3COC)C[C@@H]1C [Example 1343, (S)-7-((3S,5R)-4-acryloyl-3,5-dimethylpiperazin-1-yl)-9-chloro-10-(3-(difluoromethoxy)-4-fluorophenyl)-3-(methoxymethyl)-2,3-dihydro-5H-[1,4]thiazino[2,3,4-ij]quinazolin-5-one]  96%
14. C=CC(=O)N1[C@H](C)CN(c2nc(=O)n3c4c(c(-c5ccc(F)cc5)c(C(F)(F)F)cc24)SC[C@@H]3CN2CCN(CC)CC2)C[C@@H]1C [Example 1344, (S)-7-((3S,5R)-4-acryloyl-3,5-dimethylpiperazin-1-yl)-3-((4-ethylpiperazin-1-yl)methyl)-10-(4-fluorophenyl)-9-(trifluoromethyl)-2,3-dihydro-5H-[1,4]thiazino[2,3,4-ij]quinazolin-5-one]  96%
15. C=CC(=O)N1C[C@H](C)N(c2nc(=O)n3c4c(c(-c5ccc(F)c(Cl)c5)c(C(F)(F)F)cc24)SCC2(COC2)C3)C[C@H]1C [Example 1354, 8′-((2S,5R)-4-acryloyl-2,5-dimethylpiperazin-1-yl)-11′-(3-chloro-4-fluorophenyl)-10′-(trifluoromethyl)-2′H,4′H,6′H-spiro[oxetane-3,3′-[1,4]thiazepino[2,3,4-ij]quinazolin]-6′-one]  96%
16. C=CC(=O)N1[C@H](C)CN(c2nc(=O)n3c4c(c(-c5ccc(F)cc5)c(C(F)(F)F)cc24)SC[C@@H]3CN2C[C@@H]3C[C@H]2CO3)C[C@@H]1C [Example 1352, (S)-3-(((1S,4S)-2-oxa-5-azabicyclo[2.2.1]heptan-5-yl)methyl)-7-((3S,5R)-4-acryloyl-3,5-dimethylpiperazin-1-yl)-10-(4-fluorophenyl)-9-(trifluoromethyl)-2,3-dihydro-5H-[1,4]thiazino[2,3,4-ij]quinazolin-5-one]  96.1%
17. C=CC(=O)N1CCN(c2nc(=O)n3c4c(c(-c5ccc(F)c(Cl)c5)c(C(F)(F)F)cc24)SC[C@@H]3COCOC)CC1 [Example 1362, (S)-7-(4-acryloylpiperazin-1-yl)-10-(3-chloro-4-fluorophenyl)-3-((methoxymethoxy)methyl)-9-(trifluoromethyl)-2,3-dihydro-5H-[1,4]thiazino[2,3,4-ij]quinazolin-5-one]  96.2%
18. C=CC(=O)N1CCN(c2nc(=O)n3c4c(c(-c5ccc(F)cc5)c(C(F)(F)F)cc24)SC[C@@H]3COCOC)CC1 [Example 1358, (S)-7-(4-acryloylpiperazin-1-yl)-10-(4-fluorophenyl)-3-((methoxymethoxy)methyl)-9-(trifluoromethyl)-2H-[1,4]thiazino[2,3,4-ij]quinazolin-5(3H)-one]  96.3%
19. C=CC(=O)N1[C@H](C)CN(c2nc(=O)n3c4c(c(-c5ccc(F)c(Cl)c5)c(C(F)(F)F)cc24)SCC2(COC2)C3)C[C@@H]1C [Example 1353, 8′-((3S,5R)-4-acryloyl-3,5-dimethylpiperazin-1-yl)-11′-(3-chloro-4-fluorophenyl)-10′-(trifluoromethyl)-2′H,4′H,6′H-spiro[oxetane-3,3′-[1,4]thiazepino[2,3,4-ij]quinazolin]-6′-one]  96.4%
20. C=CC(=O)N1[C@H](C)CN(c2nc(=O)n3c4c(c(-c5ccc(F)cc5F)c(Cl)cc24)SC[C@@H]3COC)C[C@@H]1C [Example 1343a, (3S)-7-((3S,5R)-4-acryloyl-3,5-dimethylpiperazin-1-yl)-9-chloro-10-(2,4-difluorophenyl)-3-(methoxymethyl)-2,3-dihydro-5H-[1,4]thiazino[2,3,4-ij]quinazolin-5-one]  96.8%
21. [2H]C([2H])=C([2H])C(=O)N1[C@H](C)CN(c2nc(=O)n3c4c(c(-c5ccc(F)cc5)c(C(F)(F)F)cc24)SC[C@@H]3COC)C[C@@H]1C [Example 1366]  96.8%
22. C=CC(=O)N1CCN(c2nc(=O)n3c4c(c(-c5ccc(F)cc5)c(C(F)(F)F)cc24)SC[C@@H]3CN2CCN(C3CC3)CC2)CC1 [Example 1321, (S)-7-(4-acryloylpiperazin-1-yl)-3-((4-cyclopropylpiperazin-1-yl)methyl)-10-(4-fluorophenyl)-9-(trifluoromethyl)-2H-[1,4]thiazino[2,3,4-ij]quinazolin-5(3H)-one]  99.3%

Source: US20230107642A1 (Erasca, Inc., priority 2020, published 2023)
